The record followed here is the Kinase Knowledgebase extract (Sharma et al. 2016).

pIC50: −log10 of the molar value.

For the first experiment, the target named is EGFR (UniProt P00533).
Chain of EGFR (P00533 whole entry, looked up): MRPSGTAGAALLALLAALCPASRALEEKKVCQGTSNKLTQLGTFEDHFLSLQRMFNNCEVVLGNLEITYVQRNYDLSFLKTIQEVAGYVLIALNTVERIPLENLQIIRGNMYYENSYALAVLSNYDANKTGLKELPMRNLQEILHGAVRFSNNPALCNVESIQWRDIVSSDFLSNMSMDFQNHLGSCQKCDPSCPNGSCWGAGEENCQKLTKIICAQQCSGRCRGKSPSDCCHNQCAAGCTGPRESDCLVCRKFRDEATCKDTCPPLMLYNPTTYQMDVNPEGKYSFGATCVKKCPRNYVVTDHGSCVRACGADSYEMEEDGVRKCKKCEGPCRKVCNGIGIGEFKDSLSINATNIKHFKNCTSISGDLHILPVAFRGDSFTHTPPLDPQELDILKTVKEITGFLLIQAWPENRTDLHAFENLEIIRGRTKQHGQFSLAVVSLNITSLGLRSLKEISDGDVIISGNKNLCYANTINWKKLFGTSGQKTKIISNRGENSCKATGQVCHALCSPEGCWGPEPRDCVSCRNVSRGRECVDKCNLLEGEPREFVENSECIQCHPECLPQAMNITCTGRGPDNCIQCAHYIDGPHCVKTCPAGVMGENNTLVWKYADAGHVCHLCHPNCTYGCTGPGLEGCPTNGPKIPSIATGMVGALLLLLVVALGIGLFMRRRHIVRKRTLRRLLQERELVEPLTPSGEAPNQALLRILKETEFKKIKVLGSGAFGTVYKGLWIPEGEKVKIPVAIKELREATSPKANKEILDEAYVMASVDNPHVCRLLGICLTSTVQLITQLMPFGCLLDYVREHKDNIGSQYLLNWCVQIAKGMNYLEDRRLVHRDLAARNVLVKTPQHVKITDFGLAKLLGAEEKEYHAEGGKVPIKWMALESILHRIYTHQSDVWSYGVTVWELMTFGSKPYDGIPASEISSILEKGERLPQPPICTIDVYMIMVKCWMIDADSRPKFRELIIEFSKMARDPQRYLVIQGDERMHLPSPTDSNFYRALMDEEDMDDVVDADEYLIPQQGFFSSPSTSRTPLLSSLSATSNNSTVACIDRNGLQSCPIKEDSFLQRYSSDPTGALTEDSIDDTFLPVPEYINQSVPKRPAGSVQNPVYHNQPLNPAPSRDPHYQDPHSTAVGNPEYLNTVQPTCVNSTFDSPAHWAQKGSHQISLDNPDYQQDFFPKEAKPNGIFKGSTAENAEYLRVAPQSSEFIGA
Details: not given
As for `O=c1ccc2ccc(O)c(O)c2o1`, the pIC50 (commonly the negative decadic logarithm of the IC50, by convention in mol/L) was 5.12.

The same experiment, now with this note: concentration not given here.
Consider `OC1C=Cc2ccccc2O1` (configuration not stated), for which the inhibition (as a rule, the relative decrease from the control value, in per cent) came to 0%.

The compound `O=c1ccc2ccc(O)c(O)c2o1` gave an inhibition of 99.6%. The compound `O=c1ccc2ccc(O)cc2o1` yielded an inhibition of 0%. Compound `O=c1cc(O)c2ccccc2o1` showed an inhibition of 0%.

`O=c1ccc2cc(O)c(O)cc2o1`: the inhibition is 0%.

As to `O=c1ccc2ccccc2o1`, the inhibition came out at 0%.
